In publication PMC3077032 (Clinical cancer research : an official journal of the …, 2011):
Like-named read-outs stand apart in the source and are kept apart here.

Tests used:
[1] = in vivo
[2] = clinical; conditions: human, plasma (sorafenib); sample for sirolimus not named, oral
[3] = cited from earlier work
[4] = day 28 combination vs day 14 alone
[5] = for AUC, median relative difference (range) after initiation of combination therapy / Cmax, median relative difference (range) after initiation of combination therapy: combination with the interacting drug vs drug alone, n=6; for Ka, population estimate: one-compartment NONMEM model, n = 6 per drug
[6] = tested on: CYP3A4; conditions: cited from earlier work
[7] = daily oral dosing, phase I trial in cancer patients

Structure (SMILES)	AUC, median relative difference (range) after initiation of combination therapy [1]	Vd/F [2]	Dose well tolerated [3, 7]	Maximum tolerated dose [3, 7]	Dose administered without dose limiting toxicity ([3]; weekly dosing, ongoing study at the University of Chicago)	AUC, median relative difference (range) after initiation of combination therapy [4]	Cmax, median relative difference (range) after initiation of combination therapy [4]	Cmax, median relative difference (range) after initiation of combination therapy ([4]; listed as Sirolimus)	AUC, median relative difference (range) after initiation of combination therapy [5]	Cmax, median relative difference (range) after initiation of combination therapy [5]	Cmax, median relative difference (range) after initiation of combination therapy ([5]; listed as Sirolimus)	Ka, population estimate [5]	Effect of inhibitors of CYP3A4 on pharmacokinetics [6]	Cmax, median relative difference (range) after initiation of combination therapy ([5]; listed as Sorafenib)	Cmax, median relative difference (range) after initiation of combination therapy ([4]; listed as Sunitinib)
CCNCCNC(=O)c1c(C)[nH]c(/C=C2\C(=O)Nc3ccc(F)cc32)c1C [SU12662]	61.6 (−79.7, 1031.2) %	–	–	–	–	–	–	–	–	–	–	–	–	–	–
CO[C@H]1C[C@@H]2CC[C@@H](C)[C@@](O)(O2)C(=O)C(=O)N2CCCC[C@H]2C(=O)O[C@H]([C@H](C)C[C@@H]2CC[C@@H](O)[C@H](OC)C2)CC(=O)[C@H](C)/C=C(\C)[C@@H](O)[C@@H](OC)C(=O)[C@H](C)C[C@H](C)/C=C/C=C/C=C/1C [sirolimus, Sirolimus]	–	138 L	3 mg	6 mg	90 mg	−47.7 (−75.4, 1394.8) %	−29.8%	−29.8 (−77.4, 28.8) %	43.7 (10.5, 84.7) %	3.9%	3.9 (1.3, 11.0) %	2.01 h⁻¹	–	–	–
CNC(=O)c1cc(Oc2ccc(NC(=O)Nc3ccc(Cl)c(C(F)(F)F)c3)cc2)ccn1 [sorafenib, Sorafenib]	–	807 L	–	–	–	–	–	–	6.1 (−17.3, 22.0) %	−40.7%	–	1.07 h⁻¹	only modestly affected	−40.7 (−87.0, 351.2) %	–
CCN(CC)CCNC(=O)c1c(C)[nH]c(/C=C2\C(=O)Nc3ccc(F)cc32)c1C [sunitinib, Sunitinib]	–	–	–	–	–	54.3 (−34.3, 232.8) %	19.6%	–	–	–	–	–	only modestly affected	–	19.6 (−23.5, 45.4) %
